Measurements: patent publication US11542234B2, “2-alkoxy-6-[18F]fluoronicotinoyl substituted lys-c(O)-glu derivatives as efficient probes for imaging of PSMA expressing tissues” (Universität zu Köln, priority 2018, dated 2023)
Like-named read-outs stand apart in the source and are kept apart here.

Key:
PSMA [1] = biological target: T1, PSMA (Homo sapiens, UniProt Q04609); test: Pilot PET/CT study in 10 patients, comparison with [68Ga]Ga-PSMA-HBED-CC; format: in vivo
T1 construct: from tissue; host or cells: patients with prostate cancer or biochemical recurrence, in vivo PET/CT
T1 sequence (Q04609 whole entry): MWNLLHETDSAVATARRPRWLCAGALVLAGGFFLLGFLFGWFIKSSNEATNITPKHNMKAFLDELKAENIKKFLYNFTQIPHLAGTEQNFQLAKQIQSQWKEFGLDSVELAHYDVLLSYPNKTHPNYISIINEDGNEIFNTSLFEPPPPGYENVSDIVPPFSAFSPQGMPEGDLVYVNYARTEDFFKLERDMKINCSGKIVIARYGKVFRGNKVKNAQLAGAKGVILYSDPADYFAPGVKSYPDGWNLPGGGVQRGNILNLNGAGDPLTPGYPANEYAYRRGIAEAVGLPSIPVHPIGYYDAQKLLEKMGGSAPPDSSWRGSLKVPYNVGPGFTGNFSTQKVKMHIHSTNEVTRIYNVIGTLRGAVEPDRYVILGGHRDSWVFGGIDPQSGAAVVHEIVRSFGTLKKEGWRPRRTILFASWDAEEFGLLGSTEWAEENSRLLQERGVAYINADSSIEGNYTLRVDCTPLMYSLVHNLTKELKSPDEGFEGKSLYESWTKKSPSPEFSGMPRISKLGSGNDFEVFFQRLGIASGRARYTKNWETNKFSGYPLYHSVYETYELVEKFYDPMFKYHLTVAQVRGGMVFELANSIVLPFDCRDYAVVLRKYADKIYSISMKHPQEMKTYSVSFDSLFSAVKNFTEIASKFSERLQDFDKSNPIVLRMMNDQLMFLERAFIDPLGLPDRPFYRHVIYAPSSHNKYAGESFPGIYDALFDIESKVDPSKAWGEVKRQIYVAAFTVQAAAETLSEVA
Method: Owing to the favorable imaging properties of 2-MeO-[^18F]PSMA in rats a small pilot study with this tracer in 10 patients was conducted. All patients were examined with both [^68Ga]Ga-PSMA-HBED-CC and 2-MeO-[^18F]PSMA PET CT. In each case, both PET/CT scans were carried out within three weeks. […] In four patients, at least one additional PSMA-positive lesion using 2-MeO-[^18F]PSMA compared to the corresponding [^68Ga]Ga-PSMA-HBED-CC image was identified (FIG. 6B). In one patient inconspicuous in the [^68Ga]Ga-PSMA-HBED-CC scan, a PSMA-positive lesion was discovered by 2-MeO-[^18F]PSMA PET/CT (FIG. 6C).
(§1) The study was conducted in accordance with the Institutional Review Board. All patients gave written informed consent to PET imaging and inclusion of their data in a retrospective analysis. All procedures were performed in compliance with the regulations of the responsible local authorities (District Administration of Cologne, Germany).
(§2) All measurements with [^68Ga]Ga-PSMA-HBED-CC and [^18F]-2-MeO-PSMA were carried out as described in the literature.^[14a, 15]

PSMA [2] = biological target: T2, PSMA (Rattus norvegicus, UniProt P70627); test: PET study of PSMA-specific tracers in healthy rats; format: in vivo; settings: for signal-to-noise ratio (SCG), printed in text with / SCG signal-to-noise ratio / SCG % ID / Bone % ID / Liver % ID: PET 60-120 min after injection; for SCG signal-to-noise ratio: background dorsal from cervical vertebral column
T2 construct: ganglia as natural PSMA-expressing tissues remain constant over a long time; from tissue; host or cells: healthy Long Evans rats in vivo
T2 sequence (P70627 whole entry): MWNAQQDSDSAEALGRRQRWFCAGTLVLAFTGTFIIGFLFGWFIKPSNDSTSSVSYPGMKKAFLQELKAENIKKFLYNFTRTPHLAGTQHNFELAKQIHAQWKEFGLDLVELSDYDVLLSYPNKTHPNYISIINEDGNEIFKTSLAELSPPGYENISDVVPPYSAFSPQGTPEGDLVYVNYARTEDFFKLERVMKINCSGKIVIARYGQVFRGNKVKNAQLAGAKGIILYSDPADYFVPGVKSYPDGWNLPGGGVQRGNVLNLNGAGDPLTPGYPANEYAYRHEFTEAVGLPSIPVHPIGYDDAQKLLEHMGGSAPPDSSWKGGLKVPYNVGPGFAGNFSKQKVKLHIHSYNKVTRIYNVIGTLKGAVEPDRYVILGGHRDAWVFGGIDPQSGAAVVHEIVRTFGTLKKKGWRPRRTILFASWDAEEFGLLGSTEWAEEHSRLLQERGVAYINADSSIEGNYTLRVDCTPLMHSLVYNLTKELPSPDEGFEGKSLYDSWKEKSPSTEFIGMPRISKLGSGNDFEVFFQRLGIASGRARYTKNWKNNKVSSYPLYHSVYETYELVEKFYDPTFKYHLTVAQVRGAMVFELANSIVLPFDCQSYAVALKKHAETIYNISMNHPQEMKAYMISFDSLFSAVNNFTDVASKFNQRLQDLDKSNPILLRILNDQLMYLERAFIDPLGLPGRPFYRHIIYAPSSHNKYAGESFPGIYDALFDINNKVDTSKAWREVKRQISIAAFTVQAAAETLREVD
Description: Ganglia represent an ideal tissue for the evaluation of PSMA binding imaging probes. Having a size of 1-2 mm these structures are sufficiently small to imitate metastases in a very early stage. Ganglionic PSMA is expressed by satellite glial cells, which envelop the neuronal cell bodies of the trigeminal ganglion,^[25] spinal dorsal root ganglia and ganglia of the autonomic nervous system.^[26] […] Rat PSMA comprises 752 amino acids (vs. 750 in humans), and has about 91% homology to the human PSMA. Importantly, all amino acid residues of the active site are essentially the same as those in the human homologue with the only exception of Gly^548 in the human and Ser^548 in the rat protein, respectively^[28]
Conditions: Uptake of different PSMA-specific tracers in healthy rats measured by PET. Conditions: PET scanner (Focus 220, Siemens); 57-71 MBq tracer was injected. PET scans started 60 min after injection and continued for 60 min. % ID was determined by dividing each image by the injected dose and multiplying it by body weight. […] Background activity for calculation of signal-to-noise ratio was measured dorsal from the cervical vertebral column with a 390 mm^3 VOI.
Animals: Experiments were carried out in accordance with the EU directive 2010/63/EU for animal experiments and the German Animal Welfare Act (TierSchG, 2006), and were approved by regional authorities (LANUV NRW). Long Evans rats (250-590 g body weight) were used for this study. Rats were housed in pairs in individually ventilated cages (NexGen EcoFlo, cages RAT1800 with 1805 cm^2 floor space and 41 cm height; Allentown Inc., Allentown, N.J., USA) under controlled ambient conditions (22±1° C. and 55±5% relative humidity) on an inversed 12 hour light/dark schedule (lights on 9:00 p.m.-9:00 a.m.). Food and water were available at all times. Three rats received two, and one rat received three different tracers. The other seven rats were measured with one tracer only. Each tracer was measured in three animals.
PET-imaging: Prior to PET measurements with PET probes, animals were anesthetized (initial dosage: 5% isoflurane in 02/air (3:7), then reduction to 2%), and a catheter for tracer injection was inserted into the lateral tail vein. Rats were placed on an animal holder (Medres, Cologne, Germany), and fixed with a tooth bar in a respiratory mask. Dynamic PET scans in a list mode were performed using a Focus 220 micro PET scanner (CTI-Siemens, Germany) with a resolution at a center of field of view of 1.4 mm. Data acquisition started with tracer injection (66±14 MBq in 0.5 mL i.v.), continued for 120 min and was followed by a 10 min transmission scan using a ^57Co point source. For blocking studies 2-(phosphonomethyl)pentanedioic acid (2-PMPA; 23 mg/kg) was added directly to a radiotracer solution. Breathing rate was monitored and kept around 60/min by adjusting isoflurane concentration (1.5-2.5%). Body temperature was maintained at 37° C. by a feedback-controlled system. Following Fourier rebinning, data were reconstructed using an iterative OSEM3D/MAP procedure78 including attenuation and decay correction in two different ways: 1) 28 frames (2×1 min; 2×2 min, 6×4 min, 18×5 min) for compilation of regional time activity curves; 2) 4 frames (4×30 min) for visual display. Resulting voxel sizes were always 0.38×0.38×0.79 mm.
Data analysis was performed using the software VINCI.79 Images were Gauss filtered (1 mm FWHM), and % ID was determined by dividing each image by the injected dose and multiplying the result by body weight times 100. Mean % ID values were extracted from each of the 28 frames and plotted over time.

PSMA^+ LNCaP C4-2 cells = test: Cellular uptake in PSMA positive LNCaP C4-2 cells; format: cell-based; settings: for cellular uptake under inhibition with 2-PMPA: in the presence of 2-PMPA (100 μM/well)
Method: (§3) The PSMA specificity of the tracer uptake in LNCaP C4-2 was confirmed by complete inhibition with 2-PMPA (≤0.1% ID/10^5 cells). The enrichment of both tracers in PSMA^− PC3 cells was negligible (≤0.1% ID/10^5 cells).
(§4) PSMA^− PC-3 cells were cultured in RPMI-1640 medium supplemented with FBS (10%) and penicillin/streptomycin (1%). PSMA* LNCaP C4-2 cells were cultured in a mixture of DMEM: Ham's F-12K (Kaighn's) mediums (4:1) supplemented with FBS (5%), NaHCO3(3 g/L), insulin (5 μg/mL), triiodothyronine ([…]), transferrin (5 μg/mL), biotin (0.25 μg/ml) and adenine (25 μg/mL). Both cell lines were grown in 75 mL flasks containing 10 mL of the culture medium in a humidified atmosphere of 5% CO2/95% air at 37° C. for 4-5 days until they reached 80-90% confluency. Cells were seeded into 12-well plates (1×10^5 cells/well containing 1 mL medium) 24 h before the beginning of the cellular uptake experiments.
2-(Phosphonomethyl)pentanedioic acid (2-PMPA; 100 μM/well) was used for blocking studies. Thereafter, the cells were washed two times with medium (1 mL), trypsinized, harvested and the accumulated radioactivity was measured in a gamma counter (Wizard 1470, PerkinElmer, Massachusetts, USA). The cellular uptake of the novel PSMA-selective candidates and [^18F]DCFPyL obtained in experiments performed in parallel were compared. Each cellular uptake experiment was carried out in triplicate.

PSMA [3] = biological target: T1, PSMA; test: PSMA-PET imaging of patients with biochemical recurrence of prostate cancer; format: in vivo; settings: 124 patients with biochemical recurrence (BCR) of PCa
Method: In the subsequent larger study, 124 patients with biochemical recurrence (BCR) of PCa were examined.
as §1, §2

PSMA^− PC-3 cells = test: Cellular uptake in PSMA negative PC3 cells; format: cell-based
Method: as §3, §4
The corresponding PSMA specific PET probe was added to the cells (100-150 kBq/well) and the cells were incubated at 37° C. for 1 and 2 h. 2-(Phosphonomethyl)pentanedioic acid (2-PMPA; 100 μM/well) was used for blocking studies. Thereafter, the cells were washed two times with medium (1 mL), trypsinized, harvested and the accumulated radioactivity was measured in a gamma counter (Wizard 1470, PerkinElmer, Massachusetts, USA). […]

[4] = meta-analysis of data of 251 patients, detecting recurrent PCa; cited from earlier work
PSMA [5] = biological target: T1, PSMA; settings: determined earlier, for comparison; cited from earlier work
[6] = 2 h incubation, 2-MeO-[18F]PSMA and [18F]DCFPyL in parallel (FIG. 4A)
[7] = 4 h incubation, 2-MeO-[18F]PSMA and [18F]DCFPyL in parallel (FIG. 4A)
[8] = 2 h incubation, 4-MeO-[18F]PSMA and [18F]DCFPyL in parallel (FIG. 4B)
[9] = 4 h incubation, 4-MeO-[18F]PSMA and [18F]DCFPyL in parallel (FIG. 4B)
[10] = co-application of 2-PMPA (23 mg/kg)

Row | SMILES | signal-to-noise ratio (SCG), printed in text with (PSMA [2]) | SCG signal-to-noise ratio (PSMA [2]) | SCG % ID (PSMA [2]; superior cervical ganglion) [% ID] | cellular uptake (PSMA^+ LNCaP C4-2 cells; [6]) [% ID/10^5 cells] | cellular uptake (PSMA^+ LNCaP C4-2 cells; [7]) [% ID/10^5 cells] | cellular uptake under inhibition with 2-PMPA (PSMA^+ LNCaP C4-2 cells) | Bone % ID (PSMA [2]) [% ID] | Liver % ID (PSMA [2]) [% ID] | cellular uptake (PSMA^+ LNCaP C4-2 cells; [8]) [% ID/10^5 cells] | cellular uptake (PSMA^+ LNCaP C4-2 cells; [9]) [% ID/10^5 cells] | other results
1 | COc1nc([18F])ccc1C(=O)NCCCC[C@H](NC(=O)N[C@@H](CCC(=O)O)C(=O)O)C(=O)O [2-MeO-[^18F]PSMA] | 8.2 ± 1.7 | 8.2 ± 1.7 | 31.3±10.5 | 2.03±0.03 | 3.31±0.01 | ≤ 0.1 % ID/10^5 cells |  |  |  |  | patients inconspicuous in the [68Ga]Ga-PSMA-HBED-CC scan in whom a PSMA-positive lesion was discovered (PSMA [1]): one; patients with at least one additional PSMA-positive lesion compared to the corresponding [68Ga]Ga-PSMA-HBED-CC image (PSMA [1]; both PET/CT scans within three weeks): four; sensitivity (PSMA [3]): 83.0%
2 | COc1cc([18F])ncc1C(=O)NCCCC[C@H](NC(=O)N[C@@H](CCC(=O)O)C(=O)O)C(=O)O [4-MeO-[^18F]PSMA] |  | 4.6±1.3 | 14.4±2.6 |  |  | completely blocked | 19.2±2.1 | 29.0±7.2 | 0.79±0.04 | 0.90±0.04 | enrichment in PSMA^− PC3 cells (PSMA^− PC-3 cells): very low
3 | O=C(O)CC[C@H](NC(=O)N[C@@H](CCCCNC(=O)c1ccc([18F])nc1)C(=O)O)C(=O)O [[^18F]DCFPyL] |  |  | 20.2 ± 5.8 | 1.55±0.05 | 3.1±0.03 |  | 12.4 ± 4.3 | 65.3 ± 21.7 | 1.53±0.03 | 3.16±0.01 | uptake in the ganglion of the trigeminal nerve (PSMA [2]; 60-120 min after injection): 37.9±9.9 % ID; Liver % ID (PSMA [2]; [10]): remained at the same level; SCG % ID (PSMA [2]; [10]): 4.6±1.8 % ID
4 | N[C@]1(C(=O)O)C[C@@H]([18F])C1 [[^18F]FACBC, anti-1-amino-3-[^18F]fluorocyclobutane-1-carboxylic acid] |  |  |  |  |  |  |  |  |  |  | sensitivity [4]: 87%; specificity [4]: 66%
5 | O=C(O)CC[C@H](NC(=O)N[C@@H](CCCCNC(=O)[C@H](Cc1ccc2ccccc2c1)NC(=O)c1ccc(CNC(=O)[C@H](CCC(=O)O)NC(=O)[C@H](CCC(=O)O)NC(=O)c2ccc([18F])nc2)cc1)C(=O)O)C(=O)O [[^18F]PSMA-1007] | 6.2 ± 1.9 | 6.2 ± 1.9 |  |  |  |  | 33.2±9.5 | 50.7 ± 4.3 |  |  | 
6 | O=C([O-])CN(CCN(CC(=O)[O-])Cc1cc(CCC(=O)NCCCCCC(=O)NCCCC[C@H](NC(=O)N[C@@H](CCC(=O)O)C(=O)O)C(=O)O)ccc1[O-])Cc1cc(CCC(=O)O)ccc1[O-].[68Ga+3].[OH3+] [[^68Ga]Ga-PSMA-HBED-CC] |  | 4.5±0.1 | 41.0±3.4 |  |  |  | 18.5 ± 0.6 | 47.0 ± 10.3 |  |  | sensitivity (PSMA [5]): 74.2%; SCG signal-to-noise ratio (PSMA [2]; listed as [^68Ga]PSMA-HBED-CC): 4.5 ± 0.1; SCG % ID (PSMA [2]; superior cervical ganglion, listed as [^68Ga]PSMA-HBED-CC): 41.0 ± 3.4 % ID
